Results as given in ChEMBL document CHEMBL1150999, “Synthesis and biological activities of new conformationally fixed analogues of ()-indolactam-V, the core structure of tumor-promoting teleocidins” (1995).

Tests used:
Assay type in all cases: functional
Human gammaherpesvirus 4 [1] = test: In vitro ability of compound to induce Epstein-Barr virus early antigen (EBV-EA) activity at 10 e-5 M concentration
Human gammaherpesvirus 4 [2] = test: In vitro ability of compound to induce Epstein-Barr virus early antigen (EBV-EA) activity at 10 e-6 M concentration
Human gammaherpesvirus 4 [3] = test: In vitro ability of compound to induce Epstein-Barr virus early antigen (EBV-EA) activity at 10 e-7 M concentration

| Structure (SMILES) | Activity (Human gammaherpesvirus 4 [1]) | Activity (Human gammaherpesvirus 4 [2]) | Activity (Human gammaherpesvirus 4 [3]) |
| --- | --- | --- | --- |
| CC(C)[C@H]1C(=O)N[C@H](CO)Cc2c[nH]c3ccc4c(c23)N1[C@@H](C)C4 | 17.8% | 0.8% | 0.2% |
| Cc1cc2ccc3[nH]cc4c3c2n1[C@@H](C(C)C)C(=O)N[C@H](CO)C4 | 36.1% | 34% | 12.7% |
| CC(C)[C@H]1C(=O)N[C@H](CO)Cc2c[nH]c3cccc(c23)N1C [INDOLACTUM] | 35% | 19% | 7.7% |
| Cc1ccc2[nH]cc3c2c1N(C)[C@@H](C(C)C)C(=O)N[C@H](CO)C3 | 9.4% | 1.4% | 0.3% |
| CC(C)[C@H]1C(=O)N[C@H](CO)Cc2c[nH]c3ccc4c(c23)N1[C@H](C)C4 | 16% | 14.1% | 1.2% |
